In article PMC5218480 (PLoS ONE, 2017):

Tested on: MV-4-11 cells
Assay: Gene expression microarray analysis (Affymetrix PrimeView) and GSEA
Type: cell-based, human
Parameters: RFU PODN (11730768_x_at) / Fold change /veh PODN (11730768_x_at) / RFU LINC00158 (11744669_a_at) / Fold change /veh LINC00158 (11744669_a_at) / RFU DUSP10 (11751237_a_at) / Fold change /veh DUSP10 (11751237_a_at) / RFU ID3 (11757404_x_at) / Fold change /veh ID3 (11757404_x_at) / RFU PLEKHG5 (11737974_s_at) / Fold change /veh PLEKHG5 (11737974_s_at) / RFU LRRC4B (11730491_at) / Fold change /veh LRRC4B (11730491_at) / RFU GIMAP4 (11747438_a_at) / Fold change /veh GIMAP4 (11747438_a_at) / RFU KRT8 (11758183_x_at) / Fold change /veh KRT8 (11758183_x_at) / RFU CNN1 (11734310_a_at) / Fold change /veh CNN1 (11734310_a_at) / RFU VPS37D (11726825_at) / Fold change /veh VPS37D (11726825_at) / RFU C10orf10 (11716522_x_at) / Fold change /veh C10orf10 (11716522_x_at) / RFU KIR2DL2 /// KIR2DL4 /// KIR2DL5A /// KIR2DL5B /// KIR2DS1 /// KIR2DS2 /// KIR2DS3 /// KIR2DS4 /// KIR3DL3 /// KIR3DL3 /// KIR3DS1 (11738374_at) / Fold change /veh KIR2DL2 /// KIR2DL4 /// KIR2DL5A /// KIR2DL5B /// KIR2DS1 /// KIR2DS2 /// KIR2DS3 /// KIR2DS4 /// KIR3DL3 /// KIR3DL3 /// KIR3DS1 (11738374_at) / RFU C1QL1 (11718748_at) / Fold change /veh C1QL1 (11718748_at) / RFU TMPRSS4 (11747572_a_at) / Fold change /veh TMPRSS4 (11747572_a_at) / RFU HAMP (11756126_x_at) / Fold change /veh HAMP (11756126_x_at) / RFU RNFT2 (11725882_a_at) / Fold change /veh RNFT2 (11725882_a_at) / RFU NR4A2 (11747474_a_at) / Fold change /veh NR4A2 (11747474_a_at) / RFU ABCC12 (11746883_a_at) / Fold change /veh ABCC12 (11746883_a_at) / RFU TMEM136 (11760407_x_at) / Fold change /veh TMEM136 (11760407_x_at) / RFU CLDN22 /// WWC2 (11732394_at) / Fold change /veh CLDN22 /// WWC2 (11732394_at) / RFU HLA-DPB1 (11760878_x_at) / Fold change /veh HLA-DPB1 (11760878_x_at) / RFU SPINT1 (11716480_a_at) / Fold change /veh SPINT1 (11716480_a_at) / RFU GAP43 (11754022_s_at) / Fold change /veh GAP43 (11754022_s_at) / RFU A4GNT (11735810_at) / Fold change /veh A4GNT (11735810_at) / RFU PRB3 (11715151_x_at) / Fold change /veh PRB3 (11715151_x_at) / RFU TUBB4B (11761932_at) / Fold change /veh TUBB4B (11761932_at) / RFU CAPN14 (11732068_a_at) / Fold change /veh CAPN14 (11732068_a_at) / RFU TMCC2 (11721928_a_at) / Fold change /veh TMCC2 (11721928_a_at) / RFU IRGQ (11745062_a_at) / Fold change /veh IRGQ (11745062_a_at) / RFU FAM174B (11720279_a_at) / Fold change /veh FAM174B (11720279_a_at) / RFU TMPRSS4 (11748680_a_at) / Fold change /veh TMPRSS4 (11748680_a_at) / RFU FAM212B (11763350_a_at) / Fold change /veh FAM212B (11763350_a_at) / RFU PLEKHG5 (11743358_a_at) / Fold change /veh PLEKHG5 (11743358_a_at) / RFU ZSCAN30 (11745921_a_at) / Fold change /veh ZSCAN30 (11745921_a_at) / RFU CMKLR1 (11741424_a_at) / Fold change /veh CMKLR1 (11741424_a_at) / RFU LOC101060620 /// MAPK8IP1 (11723275_at) / Fold change /veh LOC101060620 /// MAPK8IP1 (11723275_at) / RFU SPTSSB (11747773_x_at) / Fold change /veh SPTSSB (11747773_x_at) / RFU PRSS12 (11739890_at) / Fold change /veh PRSS12 (11739890_at) / RFU BIN1 (11741810_x_at) / Fold change /veh BIN1 (11741810_x_at) / RFU WNT11 (11732464_a_at) / Fold change /veh WNT11 (11732464_a_at) / RFU C10orf10 (11716521_a_at) / Fold change /veh C10orf10 (11716521_a_at) / RFU C5orf56 (11738089_at) / Fold change /veh C5orf56 (11738089_at) / RFU CYB561 (11721691_x_at) / Fold change /veh CYB561 (11721691_x_at) / RFU ANKRD19P (11752326_a_at) / Fold change /veh ANKRD19P (11752326_a_at) / RFU OR2T12 /// OR2T33 /// OR2T8 (11738714_s_at) / Fold change /veh OR2T12 /// OR2T33 /// OR2T8 (11738714_s_at) / RFU VCAN (11748164_a_at) / Fold change /veh VCAN (11748164_a_at) / RFU JSRP1 (11732532_at) / Fold change /veh JSRP1 (11732532_at) / RFU KRTAP10-11 (11738290_x_at) / Fold change /veh KRTAP10-11 (11738290_x_at) / RFU MYO3A (11730013_a_at) / Fold change /veh MYO3A (11730013_a_at) / RFU EBF3 (11725865_a_at) / Fold change /veh EBF3 (11725865_a_at) / RFU CAMK2N1 (11719241_x_at) / Fold change /veh CAMK2N1 (11719241_x_at) / RFU C5orf56 (11738088_a_at) / Fold change /veh C5orf56 (11738088_a_at) / RFU OLFML3 (11715873_a_at) / Fold change /veh OLFML3 (11715873_a_at) / RFU LOC100653217 /// NTM (11731650_a_at) / Fold change /veh LOC100653217 /// NTM (11731650_a_at) / RFU MAPK11 (11762145_a_at) / Fold change /veh MAPK11 (11762145_a_at) / RFU FIZ1 (11724087_x_at) / Fold change /veh FIZ1 (11724087_x_at) / RFU OASL (11726364_x_at) / Fold change /veh OASL (11726364_x_at) / RFU SOX15 (11748057_x_at) / Fold change /veh SOX15 (11748057_x_at) / RFU CD79A (11719716_a_at) / Fold change /veh CD79A (11719716_a_at) / RFU HIST1H1D (11736915_at) / Fold change /veh HIST1H1D (11736915_at) / RFU CASKIN2 (11723855_a_at) / Fold change /veh CASKIN2 (11723855_a_at) / RFU LOC730098 (11760151_x_at) / Fold change /veh LOC730098 (11760151_x_at) / RFU OR4N2 (11742367_at) / Fold change /veh OR4N2 (11742367_at) / RFU PRRT2 (11749266_a_at) / Fold change /veh PRRT2 (11749266_a_at) / RFU SNX32 (11753110_a_at) / Fold change /veh SNX32 (11753110_a_at) / RFU CDHR5 (11726645_a_at) / Fold change /veh CDHR5 (11726645_a_at) / RFU RCAN1 (11760418_a_at) / Fold change /veh RCAN1 (11760418_a_at) / RFU FAM167A (11723789_a_at) / Fold change /veh FAM167A (11723789_a_at) / RFU FAM26E (11764081_at) / Fold change /veh FAM26E (11764081_at) / RFU ISYNA1 (11749810_s_at) / Fold change /veh ISYNA1 (11749810_s_at) / RFU ACY1 (11761880_at) / Fold change /veh ACY1 (11761880_at) / RFU 11764098_at / Fold change /veh 11764098_at / RFU SAMD14 (11745864_x_at) / Fold change /veh SAMD14 (11745864_x_at) / RFU NPB (11741838_a_at) / Fold change /veh NPB (11741838_a_at) / RFU TMPRSS6 (11731388_a_at) / Fold change /veh TMPRSS6 (11731388_a_at) / RFU KRTAP10-2 (11738614_at) / Fold change /veh KRTAP10-2 (11738614_at) / RFU ARHGAP8 /// PRR5-ARHGAP8 (11727945_x_at) / Fold change /veh ARHGAP8 /// PRR5-ARHGAP8 (11727945_x_at) / RFU KRTAP5-7 /// NADSYN1 (11734609_at) / Fold change /veh KRTAP5-7 /// NADSYN1 (11734609_at) / RFU RASL12 (11751679_a_at) / Fold change /veh RASL12 (11751679_a_at) / RFU CDKN2B (11736163_a_at) / Fold change /veh CDKN2B (11736163_a_at) / RFU PRF1 (11729649_at) / Fold change /veh PRF1 (11729649_at) / RFU, ZNF638 /// ZNF638-IT1 / Fold change vs veh, ZNF638 /// ZNF638-IT1 / RFU, PANK3 / Fold change vs veh, PANK3 / RFU, SH3YL1 / Fold change vs veh, SH3YL1 / RFU, ZEB2 / Fold change vs veh, ZEB2 / RFU, NRIP1 / Fold change vs veh, NRIP1 / RFU, PTTG1IP / Fold change vs veh, PTTG1IP / RFU, CAPN2 / Fold change vs veh, CAPN2 / RFU, MED14 / Fold change vs veh, MED14 / RFU, SNORA58 / Fold change vs veh, SNORA58 / RFU, C1orf63 / Fold change vs veh, C1orf63 / RFU, LRRFIP1 / Fold change vs veh, LRRFIP1 / RFU, NDUFAF7 / Fold change vs veh, NDUFAF7 / RFU, SLC12A2 / Fold change vs veh, SLC12A2 / RFU, IBTK / Fold change vs veh, IBTK / RFU, ESF1 / Fold change vs veh, ESF1 / Fold change vs veh, TMEM50B / RFU, TAOK1 / Fold change vs veh, TAOK1 / RFU, ACBD3 / Fold change vs veh, ACBD3 / RFU, TMA16 / Fold change vs veh, TMA16 / RFU, RWDD3 / Fold change vs veh, RWDD3 / RFU, BCAT1 / Fold change vs veh, BCAT1 / RFU, EDEM3 / Fold change vs veh, EDEM3 / RFU, TMEM33 / Fold change vs veh, TMEM33 / RFU, WDR75 / Fold change vs veh, WDR75 / RFU, AHCTF1 / Fold change vs veh, AHCTF1 / RFU, TFRC / Fold change vs veh, TFRC / RFU, ZDHHC17 / Fold change vs veh, ZDHHC17 / RFU, NOM1 / Fold change vs veh, NOM1 / RFU, ARL8B / Fold change vs veh, ARL8B / RFU, ZBTB11 / Fold change vs veh, ZBTB11 / RFU, TAMM41 / Fold change vs veh, TAMM41 / RFU, KIAA1704 /// LOC100996395 / Fold change vs veh, KIAA1704 /// LOC100996395 / RFU, ING1 / Fold change vs veh, ING1 / RFU, TRMT61B / Fold change vs veh, TRMT61B / RFU, FUBP3 / Fold change vs veh, FUBP3 / RFU, TP53 / Fold change vs veh, TP53 / RFU, TNKS2 / Fold change vs veh, TNKS2 / RFU, ZFP14 / Fold change vs veh, ZFP14 / RFU, ACTR2 / Fold change vs veh, ACTR2 / RFU, PPP3R1 / Fold change vs veh, PPP3R1 / RFU, PIK3R1 / Fold change vs veh, PIK3R1 / RFU, HNRNPA1 / Fold change vs veh, HNRNPA1 / RFU, RNF170 / Fold change vs veh, RNF170 / RFU, ZNF28 / Fold change vs veh, ZNF28 / RFU, RNGTT / Fold change vs veh, RNGTT / RFU, OGT / Fold change vs veh, OGT / RFU, BRD1 / Fold change vs veh, BRD1 / RFU, MARS / Fold change vs veh, MARS / RFU, ZNF655 / Fold change vs veh, ZNF655 / RFU, FAHD1 / Fold change vs veh, FAHD1 / RFU, BDP1 / Fold change vs veh, BDP1 / RFU, LRRCC1 / Fold change vs veh, LRRCC1 / RFU, ARID1A / Fold change vs veh, ARID1A / RFU, ZNF146 / Fold change vs veh, ZNF146 / RFU, ZNF330 / Fold change vs veh, ZNF330 / RFU, GPN3 / Fold change vs veh, GPN3 / RFU, C9orf123 / Fold change vs veh, C9orf123 / RFU, N4BP2L2 / Fold change vs veh, N4BP2L2 / RFU, ARFIP1 / Fold change vs veh, ARFIP1 / RFU, FAM179B / Fold change vs veh, FAM179B / RFU, BCL10 / Fold change vs veh, BCL10 / RFU, UHRF1BP1L / Fold change vs veh, UHRF1BP1L / RFU, BET1 / Fold change vs veh, BET1 / RFU, CNOT2 / Fold change vs veh, CNOT2 / RFU, ZNF268 / Fold change vs veh, ZNF268 / Fold change vs veh, ZNF507 / RFU, DGCR2 / Fold change vs veh, DGCR2 / RFU, WDSUB1 / Fold change vs veh, WDSUB1 / Fold change vs veh, HSP90B1 /// MIR3652 / RFU, ADSS / Fold change vs veh, ADSS / RFU, GK / Fold change vs veh, GK / RFU, ZNF148 / Fold change vs veh, ZNF148 / RFU, TAF9 / Fold change vs veh, TAF9 / RFU, SLC1A5 / Fold change vs veh, SLC1A5 / RFU, SLMO2 / Fold change vs veh, SLMO2 / RFU, ABCC4 / Fold change vs veh, ABCC4 / RFU, LOC101060439 /// RAP1B / Fold change vs veh, LOC101060439 /// RAP1B / RFU, RFX7 / Fold change vs veh, RFX7 / RFU, GTPBP10 / Fold change vs veh, GTPBP10 / RFU, CNEP1R1 / Fold change vs veh, CNEP1R1 / RFU, BIVM-ERCC5 /// ERCC5 / Fold change vs veh, BIVM-ERCC5 /// ERCC5 / RFU, ILF3 / Fold change vs veh, ILF3 / RFU 11762660_at / Fold change /veh 11762660_at / RFU VCAN (11757783_s_at) / Fold change /veh VCAN (11757783_s_at) / RFU DDX43 (11728927_at) / Fold change /veh DDX43 (11728927_at) / RFU KRT8 (11758188_x_at) / Fold change /veh KRT8 (11758188_x_at) / RFU NKD1 (11759106_at) / Fold change /veh NKD1 (11759106_at) / RFU SRD5A1 (11742802_a_at) / Fold change /veh SRD5A1 (11742802_a_at) / RFU TPSAB1 /// TPSB2 (11721975_s_at) / Fold change /veh TPSAB1 /// TPSB2 (11721975_s_at) / RFU GSTM3 (11746129_a_at) / Fold change /veh GSTM3 (11746129_a_at) / RFU IL23R (11737362_x_at) / Fold change /veh IL23R (11737362_x_at) / RFU TMEM51 (11727254_a_at) / Fold change /veh TMEM51 (11727254_a_at) / RFU PIWIL2 (11732686_x_at) / Fold change /veh PIWIL2 (11732686_x_at) / RFU ORM1 (11744905_x_at) / Fold change /veh ORM1 (11744905_x_at) / RFU CCDC152 (11743942_at) / Fold change /veh CCDC152 (11743942_at) / RFU ECM1 (11717891_a_at) / Fold change /veh ECM1 (11717891_a_at) / RFU IL23R (11748794_a_at) / Fold change /veh IL23R (11748794_a_at) / RFU TNFAIP8L3 (11732012_x_at) / Fold change /veh TNFAIP8L3 (11732012_x_at) / RFU MBOAT4 (11741988_at) / Fold change /veh MBOAT4 (11741988_at) / RFU 11764193_at / Fold change /veh 11764193_at / RFU TMEM53 (11763286_at) / Fold change /veh TMEM53 (11763286_at) / RFU MAGEB2 (11727129_at) / Fold change /veh MAGEB2 (11727129_at) / RFU TMEM200A (11744735_a_at) / Fold change /veh TMEM200A (11744735_a_at) / RFU CCDC152 (11751479_a_at) / Fold change /veh CCDC152 (11751479_a_at) / RFU FAM211A (11726209_a_at) / Fold change /veh FAM211A (11726209_a_at) / RFU RGS16 (11746705_a_at) / Fold change /veh RGS16 (11746705_a_at) / RFU VCAN (11755009_s_at) / Fold change /veh VCAN (11755009_s_at) / RFU RHOB (11743442_s_at) / Fold change /veh RHOB (11743442_s_at) / RFU RGS16 (11720943_a_at) / Fold change /veh RGS16 (11720943_a_at) / RFU RGS16 (11720944_at) / Fold change /veh RGS16 (11720944_at) / RFU, VPS4B / Fold change vs veh, VPS4B / RFU, CREB1 / Fold change vs veh, CREB1 / RFU, DNAJC13 / Fold change vs veh, DNAJC13 / RFU, GNAQ / Fold change vs veh, GNAQ / RFU, CDK5R1 / Fold change vs veh, CDK5R1 / RFU, ZRANB3 / Fold change vs veh, ZRANB3 / RFU, CUL4A / Fold change vs veh, CUL4A / RFU, CCNY / Fold change vs veh, CCNY / RFU, UFL1 / Fold change vs veh, UFL1 / RFU, COG3 / Fold change vs veh, COG3 / RFU, DIAPH2 / Fold change vs veh, DIAPH2 / RFU, SKA2 / Fold change vs veh, SKA2 / RFU, AFF3 / Fold change vs veh, AFF3 / RFU, LMF1 / Fold change vs veh, LMF1 / RFU, IPO11 / Fold change vs veh, IPO11 / RFU, DFFB / Fold change vs veh, DFFB / RFU, FOXP1 / Fold change vs veh, FOXP1 / RFU, CARD8 / Fold change vs veh, CARD8 / RFU, STRN3 / Fold change vs veh, STRN3 / RFU, ADK / Fold change vs veh, ADK / RFU, RASSF2 / Fold change vs veh, RASSF2 / RFU, WIPF1 / Fold change vs veh, WIPF1 / RFU, LARP1B / Fold change vs veh, LARP1B / RFU, RASA1 / Fold change vs veh, RASA1 / RFU, RB1 / Fold change vs veh, RB1 / RFU, PPFIA1 / Fold change vs veh, PPFIA1 / RFU, MAT2A / Fold change vs veh, MAT2A / RFU, CCT5 / Fold change vs veh, CCT5 / RFU, WDR92 / Fold change vs veh, WDR92 / RFU, CUX1 / Fold change vs veh, CUX1 / RFU, TTC7A / Fold change vs veh, TTC7A / RFU, TMEM135 / Fold change vs veh, TMEM135 / RFU, DEPTOR / Fold change vs veh, DEPTOR / RFU, CPM / Fold change vs veh, CPM / RFU, DNAJB6 / Fold change vs veh, DNAJB6 / RFU, CACNA2D3 / Fold change vs veh, CACNA2D3 / RFU, DTX4 / Fold change vs veh, DTX4 / RFU, TFCP2 / Fold change vs veh, TFCP2 / RFU, GMCL1 /// GMCL1P1 / Fold change vs veh, GMCL1 /// GMCL1P1 / RFU, AEBP2 / Fold change vs veh, AEBP2 / RFU, SNHG1 /// SNORD22 /// SNORD25 /// SNORD26 /// SNORD27 /// SNORD28 /// SNORD29 /// SNORD31 / Fold change vs veh, SNHG1 /// SNORD22 /// SNORD25 /// SNORD26 /// SNORD27 /// SNORD28 /// SNORD29 /// SNORD31 / Fold change (Aza/veh), C12orf56 (ProbeSet 11735607_a_at) / Fold change (ACY-1035/veh), C12orf56 (ProbeSet 11735607_a_at) / Fold change (Aza/veh), FGFR1OP (ProbeSet 11751329_s_at) / Fold change (ACY-1035/veh), FGFR1OP (ProbeSet 11751329_s_at) / Fold change (Aza/veh), VPS36 (ProbeSet 11739960_a_at) / Fold change (ACY-1035/veh), VPS36 (ProbeSet 11739960_a_at) / RFU SYPL1 (11715823_x_at) / Fold change /veh SYPL1 (11715823_x_at) / RFU IGFBP7 (11715501_s_at) / Fold change /veh IGFBP7 (11715501_s_at) / RFU REEP3 (11722064_at) / Fold change /veh REEP3 (11722064_at) / RFU IGLL1 (11728026_x_at) / Fold change /veh IGLL1 (11728026_x_at): dose or concentration left out as unconfirmed
Details: MV-4-11 cells, 48 hours

Nc1ccc(-c2cccs2)cc1NC(=O)c1ccc2c(c1)cc(C1CC1)n2CCN1CCOCC1 [ACY-1035]
RFU FAM26E (11764081_at): 5.59 RFU
